Molecular target: Acetylcholinesterase (AChE) (Electrophorus electricus, UniProt O42275)
Assay: Ellman's assay with purchased electric eel AChE, Dixon plot
Assay type: biochemical

Acetylcholinesterase (AChE), sequence (O42275 24-633): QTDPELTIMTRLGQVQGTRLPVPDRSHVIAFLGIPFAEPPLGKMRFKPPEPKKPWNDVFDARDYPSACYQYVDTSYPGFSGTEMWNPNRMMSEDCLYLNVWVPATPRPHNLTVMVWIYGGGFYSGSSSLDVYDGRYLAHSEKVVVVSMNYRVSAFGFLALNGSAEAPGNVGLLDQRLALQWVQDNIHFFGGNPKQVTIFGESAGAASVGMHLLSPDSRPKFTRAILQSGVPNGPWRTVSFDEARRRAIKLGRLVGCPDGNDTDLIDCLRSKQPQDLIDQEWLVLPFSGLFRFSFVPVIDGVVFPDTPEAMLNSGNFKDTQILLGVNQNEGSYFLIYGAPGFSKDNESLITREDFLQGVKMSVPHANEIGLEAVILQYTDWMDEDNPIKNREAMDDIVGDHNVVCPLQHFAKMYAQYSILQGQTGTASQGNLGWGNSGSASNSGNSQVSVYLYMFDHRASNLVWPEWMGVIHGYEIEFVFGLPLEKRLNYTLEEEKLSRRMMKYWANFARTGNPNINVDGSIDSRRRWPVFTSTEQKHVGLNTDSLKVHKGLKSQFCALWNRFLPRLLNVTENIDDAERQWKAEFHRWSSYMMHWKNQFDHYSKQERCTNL

OC(CCN1CCCCC1)(c1ccccc1)C1CC2C=CC1C2 (stereo not drawn) [Biperiden, alpha-bicyclo[2.2.1]hept-5-en-2-yl-alpha-phenyl-1-piperidinepropanol]
Ki: 1110 ± 200 µM
